Reference: US9365499B2, “9-aminomethyl substituted tetracycline compounds” (KBP Biosciences Co., Ltd., priority 2011, dated 2016)
Values after ≈ are worked out from the molar mass of the structure shown. Like-named read-outs stand apart in the source and are kept apart here.

Key:
[1] = tested on: Klebsiella pneumoniae; test: antibacterial activity in vitro, agar dilution method; type: cell-based
Description: (§1) The antibacterial spectrum and in vitro antibacterial activity of the compound of the present invention
(§2) Experimental method: the agar dilution method, with reference to Clinical And Laboratory Standards Institute. Methods for Dilution Antimicrobial Susceptibility Tests for Bacteria That Grow Aerobically; Approved Standard-Seventh Edition. CLSI Document M7-A7. Vol 26, no. 2, Wayne, Pa.: Clinical and Laboratory Standards Institute, 2006.
(§3) Wherein MIC represents the minimum inhibitory concentration, MIC90 represents the 90% inhibitory concentration.

[2] = tested on: Acinetobacter baumannii; test: as above; type: cell-based; details: read-out: antibacterial activity MIC, Acinetobacter baumannii
Description: as §1, §2, §3

[3] = tested on: Methicillin-resistant Staphycoccus epidermidis (MRSE); test: as above; type: cell-based; details: Staphylococcus epidermidis, Table 3
Description: as §1, §2, §3

[4] = tested on: Klebsiella oxytoca; test: as above; type: cell-based; details: Table 3
Description: as §1, §2, §3

[5] = tested on: Escherichia coli; test: as above; type: cell-based
Description: as §1, §2, §3

[6] = tested on: Methicillin-resistant Staphylococcus aureus (MRSA); test: as above; type: cell-based
Description: as §1, §2, §3

[7] = in vivo; parameters: species or system male SD rats; details: male, SD, rat, 5 mg/kg
Method: Test animals: male SD rats, weighing 180-280 g, purchased from Beijing Vital River Laboratory Animal Technology Co., Ltd.; animal Certificate of Conformity: SCXK (Beijing) 2006-0009. Six rats were tested for each compound. the compounds of the present invention, prepared in accordance with the methods of above Examples, dissolved in physiological saline. tigecycline, dissolved in physiological saline. Administration of the compounds of the present invention: intravenous bolus injection (iv), dose: 5 mg/kg, administrating volume: 5 mL/kg; gavage (po), dose: 5 mg/kg, administrating volume: 5 mL/kg. Administration of tigecycline: gavage (po), dose: 10 mg/kg, administrating volume: 5 mL/kg. Prior to administration help but water fasting for 16 hours, 4 hours after administration to food. Compound 9: iv blood sampling time point: denoted by 0 min before administration, 5 min, 15 min, 30 min, 1 […] after administration; po blood sampling time point: denoted by 0 min before administration, 5 min, 15 min, 30 min, 1 […] after administration; Compound 20: iv blood sampling time point: 5 min, 15 min, 30 min, 1 […] after administration; po blood sampling time point: 10 min, 30 min, 1 […] after administration; Compound 23: iv blood sampling time point: denoted by 0 min before administration, 5 min, 15 min, 30 min, 1 […] after administration; po blood sampling time point: denoted by 0 min before administration, 5 min, 15 min, 30 min, 1 […] after administration; Tigecycline: iv blood sampling time point: 5 min, 15 min, 30 min, 1 h, 2 h, 4 h, 6 h, 8 h after administration; po blood sampling time point: 10 min, 30 min, 1 […] after administration. Each time point is taken around 100 μl whole blood and placed in a heparinized tube, centrifugated at 8000 rpm/min at 4° C. for 6 minutes in a low-temperature high-speed centrifuge to separate plasma, the resulting plasma was frozen at -80° C. refrigerator. Plasma samples analysis: 20 μl of plasma was taken and added 200 μl of internal standard solution, subjected to vortex for 3 minutes, then to centrifugation at 12,000 rpm/min for 5 minutes. 100 μl of supernatant was taken and analyzed using LC-MS/MS. Formula Absolute Bioavailability F%=[AUC](po)×Dose(iv)/[AUC](iv)×Dose(po)

[8] = tested on: Enterococcus faecalis; test: antibacterial activity in vitro, agar dilution method; type: cell-based; details: Table 4
Description: as §1, §2, §3

[9] = tested on: Streptococus agalactiae; test: as above; type: cell-based; details: Table 4
Description: as §1, §2, §3

[10] = tested on: Acinetobacter calcoaceticus; test: as above; type: cell-based; details: Table 4
Description: as §1, §2, §3

SMILES: CN(C)c1cc(CN2CC(C)(C)C2)c(O)c2c1C[C@H]1C[C@H]3[C@H](N(C)C)C(O)=C(C(N)=O)C(=O)[C@@]3(O)C(O)=C1C2=O [Compound 1, (4S,4aS,5aR,12aS)-9-((3,3-dimethylazetidin-1-yl)methyl)-4,7-bis(dimethylamino)-3,10,12,12a-tetrahydroxy-1,1′-dioxo-1,4,4a,5,5a,6,11,12a-octahydrotetracene-2-carboxamide]
- MIC ([1]; Table 3): 2 µg/mL (≈ 3.61 µM)
- MIC ([2]; Table 3, agar dilution): 1 µg/mL (≈ 1.8 µM)
- MIC [3]: 1 µg/mL (≈ 1.8 µM)
- MIC [4]: 1 µg/mL (≈ 1.8 µM)
- MIC ([5]; Table 3): 1 µg/mL (≈ 1.8 µM)
- MIC ([6]; Table 3, agar dilution): 0.5 µg/mL (≈ 0.901 µM)

SMILES: CN(C)c1cc(CN2CC3(CCC3)C2)c(O)c2c1C[C@H]1C[C@H]3[C@H](N(C)C)C(O)=C(C(N)=O)C(=O)[C@@]3(O)C(O)=C1C2=O [Compound 9, (4S,4aS,5aR,12aS)-9-(2-azaspiro[3.3]heptan-2-ylmethyl)-4,7-bis(dimethylamino)-3,10,12,12a-tetrahydroxy-1,1′-dioxo-1,4,4a,5,5a,6,11,12a-octahydrotetracene-2-carboxamide]
- AUC(0-t) ([7]; iv): 6070 ng·h/mL
- Vd ([7]; iv): 4.65 L/kg
- clearance ([7]; iv): 13.3 mL/min/kg
- half-life ([7]; iv): 5.85 h
- AUC(0-t) ([7]; po): 216 ng·h/mL
- Cmax ([7]; po): 35.6 ng/mL
- Tmax ([7]; po): 1 h
- bioavailability ([7]; po): 3.56%
- MIC ([1]; Table 3): 1 µg/mL (≈ 1.76 µM)
- MIC ([2]; Table 3, agar dilution): 4 µg/mL (≈ 7.06 µM)
- MIC [3]: 0.5 µg/mL (≈ 0.882 µM)
- MIC [4]: 1 µg/mL (≈ 1.76 µM)
- MIC ([5]; Table 3): 0.5 µg/mL (≈ 0.882 µM)
- MIC ([6]; Table 3, agar dilution): 0.5 µg/mL (≈ 0.882 µM)

SMILES: CN(C)c1cc(CN2CC3(C2)CC(F)(F)C3)c(O)c2c1C[C@H]1C[C@H]3[C@H](N(C)C)C(O)=C(C(N)=O)C(=O)[C@@]3(O)C(O)=C1C2=O [Compound 16, (4S,4aS,5aR,12aS)-9-((6,6-difluoro-2-azaspiro[3.3]heptan-2-yl)methyl)-4,7-bis(dimethylamino)-3,10,12,12a-tetrahydroxy-1,1′-dioxo-1,4,4a,5,5a,6,11,12a-octahydrotetracene-2-carboxamide]
- MIC ([1]; Table 3): 1 µg/mL (≈ 1.66 µM)
- MIC ([2]; Table 3, agar dilution): 1 µg/mL (≈ 1.66 µM)
- MIC [3]: 0.5 µg/mL (≈ 0.83 µM)
- MIC [4]: 1 µg/mL (≈ 1.66 µM)
- MIC ([5]; Table 3): 1 µg/mL (≈ 1.66 µM)
- MIC ([6]; Table 3, agar dilution): 0.5 µg/mL (≈ 0.83 µM)

SMILES: CN(C)c1cc(CN2CC(F)C2)c(O)c2c1C[C@H]1C[C@H]3[C@H](N(C)C)C(O)=C(C(N)=O)C(=O)[C@@]3(O)C(O)=C1C2=O [Compound 19, (4S,4aS,5aR,12aS)-4,7-bis(dimethylamino)-9-((3-fluoroazetidin-1-yl)methyl)-3,10,12,12a-tetrahydroxy-1,11-dioxo-1,4,4a,5,5a,6,11,12a-octahydrotetracene-2-carboxamide]
- MIC ([1]; Table 3): 1 µg/mL (≈ 1.84 µM)
- MIC ([2]; Table 3, agar dilution): 0.25 µg/mL (≈ 0.459 µM)
- MIC [3]: 0.5 µg/mL (≈ 0.918 µM)
- MIC [4]: 0.25 µg/mL (≈ 0.459 µM)
- MIC ([5]; Table 3): 1 µg/mL (≈ 1.84 µM)
- MIC ([6]; Table 3, agar dilution): 0.5 µg/mL (≈ 0.918 µM)

SMILES: CN(C)c1cc(CN2CC3CC(C3)C2)c(O)c2c1C[C@H]1C[C@H]3[C@H](N(C)C)C(O)=C(C(N)=O)C(=O)[C@@]3(O)C(O)=C1C2=O [Compound 24, (4S,4aS,5aR,12aS)-9-(3-azabicyclo[3.1.1]heptan-3-ylmethyl)-4,7-bis(dimethylamino)-3,10,12,12a-tetrahydroxy-1,1′-dioxo-1,4,4a,5,5a,6,11,12a-octahydrotetracene-2-carboxamide]
- MIC ([1]; Table 4): 2 µg/mL (≈ 3.53 µM)
- MIC ([2]; Table 4, agar dilution): 1 µg/mL (≈ 1.76 µM)
- MIC ([5]; Table 4): 1 µg/mL (≈ 1.76 µM)
- MIC [8]: 0.25 µg/mL (≈ 0.441 µM)
- MIC ([6]; Table 4, agar dilution): 0.5 µg/mL (≈ 0.882 µM)
- MIC [9]: 0.125 µg/mL (≈ 0.221 µM)
- MIC [10]: 0.25 µg/mL (≈ 0.441 µM)

SMILES: CN(C)c1cc(CN2CC3C(C2)C3(C)C)c(O)c2c1C[C@H]1C[C@H]3[C@H](N(C)C)C(O)=C(C(N)=O)C(=O)[C@@]3(O)C(O)=C1C2=O (stereo partly drawn) [Compound 27, (4S,4aS,5aR,12aS)-9-((6-dimethyl-3-azabicyclo[3.1.0]hexan-3-yl)methyl)-4,7-bis(dimethylamino)-3,10,12,12a-tetrahydroxy-1,1′-dioxo-1,4,4a,5,5a,6,11,12a-octahydrotetracene-2-carboxamide]
- MIC ([1]; Table 4): 4 µg/mL (≈ 6.89 µM)
- MIC ([2]; Table 4, agar dilution): 0.5 µg/mL (≈ 0.861 µM)
- MIC ([5]; Table 4): 2 µg/mL (≈ 3.44 µM)
- MIC [8]: 0.125 µg/mL (≈ 0.215 µM)
- MIC ([6]; Table 4, agar dilution): 0.5 µg/mL (≈ 0.861 µM)
- MIC [9]: 0.125 µg/mL (≈ 0.215 µM)
- MIC [10]: 0.125 µg/mL (≈ 0.215 µM)

SMILES: CN(C)c1cc(CN2CC3CCCC3C2)c(O)c2c1C[C@H]1C[C@H]3[C@H](N(C)C)C(O)=C(C(N)=O)C(=O)[C@@]3(O)C(O)=C1C2=O (stereo partly drawn) [Compound 28, (4S,4aS,5aR,12aS)-4,7-bis(dimethylamino)-9-((hexahydrocyclopenta[c]pyrrol-2(1H)-yl)methyl)-3,10,12,12a-tetrahydroxy-1,1′-dioxo-1,4,4a,5,5a,6,11,12a-octahydrotetracene-2-carboxamide]
- MIC ([1]; Table 4): 2 µg/mL (≈ 3.44 µM)
- MIC ([2]; Table 4, agar dilution): 1 µg/mL (≈ 1.72 µM)
- MIC ([5]; Table 4): 1 µg/mL (≈ 1.72 µM)
- MIC [8]: 0.06 µg/mL (≈ 0.103 µM)
- MIC ([6]; Table 4, agar dilution): 0.5 µg/mL (≈ 0.861 µM)
- MIC [9]: 0.125 µg/mL (≈ 0.215 µM)
- MIC [10]: 0.125 µg/mL (≈ 0.215 µM)

SMILES: CN(C)c1cc(CN2CC3CCCCC3C2)c(O)c2c1C[C@H]1C[C@H]3[C@H](N(C)C)C(O)=C(C(N)=O)C(=O)[C@@]3(O)C(O)=C1C2=O (stereo partly drawn) [Compound 29, (4S,4aS,5aR,12aS)-9-((1H-isoindol-2(3H,3aH,4H,5H,6H,7H,7aH)-yl)methyl)-4,7-bis(dimethylamino)-3,10,12,12a-tetrahydroxy-1,11-dioxo-1,4,4a,5,5a,6,11,12a-octahydrotetracene-2-carboxamide]
- MIC ([1]; Table 4): 4 µg/mL (≈ 6.73 µM)
- MIC ([2]; Table 4, agar dilution): 2 µg/mL (≈ 3.36 µM)
- MIC ([5]; Table 4): 1 µg/mL (≈ 1.68 µM)
- MIC [8]: 0.125 µg/mL (≈ 0.21 µM)
- MIC ([6]; Table 4, agar dilution): 1 µg/mL (≈ 1.68 µM)
- MIC [9]: 0.25 µg/mL (≈ 0.42 µM)
- MIC [10]: 0.25 µg/mL (≈ 0.42 µM)

SMILES: CN(C)c1cc(CN2CCC3CCCCC3C2)c(O)c2c1CC1CC3[C@H](N(C)C)C(O)=C(C(N)=O)C(=O)[C@@]3(O)C(O)=C1C2=O (stereo partly shown) [Compound c, reference compound]
- MIC ([1]; Table 4): 16 µg/mL (≈ 26.3 µM)
- MIC ([2]; Table 4, agar dilution): 4 µg/mL (≈ 6.57 µM)
- MIC ([5]; Table 4): 4 µg/mL (≈ 6.57 µM)
- MIC [8]: 0.5 µg/mL (≈ 0.821 µM)
- MIC ([6]; Table 4, agar dilution): 1 µg/mL (≈ 1.64 µM)
- MIC [9]: 0.25 µg/mL (≈ 0.411 µM)
- MIC [10]: 0.5 µg/mL (≈ 0.821 µM)

SMILES: CN(C)c1cc(CN2CCC3(CCCC3)CC2)c(O)c2c1CC1CC3[C@H](N(C)C)C(O)=C(C(N)=O)C(=O)[C@@]3(O)C(O)=C1C2=O (stereo partly shown) [Compound d, reference compound]
- MIC ([1]; Table 3): 8 µg/mL (≈ 13.1 µM)
- MIC ([2]; Table 3, agar dilution): 4 µg/mL (≈ 6.57 µM)
- MIC [3]: 2 µg/mL (≈ 3.29 µM)
- MIC [4]: 8 µg/mL (≈ 13.1 µM)
- MIC ([5]; Table 3): 2 µg/mL (≈ 3.29 µM)
- MIC ([6]; Table 3, agar dilution): 1 µg/mL (≈ 1.64 µM)
